# Results taken from patent publication EP4537832A1, “METHOD FOR TREATING CANCER PATIENT WITH AKR1C3 ENZYME-ACTIVATED PRODRUG” (Ascentawits Pharmaceuticals, Ltd., priority 2022, dated 2023).
# Entries after “also recorded” stand apart in the source; their conditions may differ.
# What was measured:
# Format in all cases: cell-based
# p-ERK2 [1] = assay: AST induced ERK phosphorylation experiment, Western blot in HPAF II cells: p-ERK2
# Experimental: AST induced ERK phosphorylation experiment. Three sets of experiments were conducted with corresponding three sets of variables: AST concentration, AST action time, and AKRAC3 enzyme dependent.
# The expressions of NRF2 and AKR1C3 were detected by Western blot.
# ERK2 = assay: Western blot in HPAF II cells: total ERK2 expression; conditions: various AST treatment concentrations (0.5-10 µM, 24h)
# Experimental: AST induced ERK phosphorylation experiment. Three sets of experiments were conducted with corresponding three sets of variables: AST concentration, AST action time, and AKRAC3 enzyme dependent. Wherein, the AKRAC3 enzyme dependent variables were tested under the condition of AKR1C3 enzyme specific inhibitor AST-3021, with or without the presence of specific AKR1C3 enzyme inhibitor AST-3021. The inhibitor used is AST-3021 (also known as TH-3021, which is compound 36 reported by Flanagan et al. Bioorganic and Medicinal Chemistry (2014) pages 962-977, and its structural formula is [drawing 47]
# The experiment was assigned to three groups, conducted by treatment with different concentrations of AST (Group 1), 1 µM AST for different times (Group 2), with or without the AKR1C3 inhibitor AST-3021 (Group 3), respectively. […]
# The expressions of NRF2 and AKR1C3 were detected by Western blot. […]
# p-ERK2 [2] = assay: Western blot in HPAF II cells with MEK/ERK modulators and AST: p-ERK2
# Text: The experiment used three types of MEK/ERK modulators, including two inhibitors and one activator. The inhibitors were PD98059, a MEK1/2 specific inhibitor, and Suramin, a broad-spectrum growth factor receptor inhibitor; while the activator of the ERK signaling pathway is Phorbol Ester (TPA). The chemical structures of inhibitor PD98059, inhibitor Suramin, and activator TPA are as follows: [drawing 48] [drawing 49] [drawing 50]
# The experiment was assigned to inhibitor group and activator group, both of which were performed by Western Blot and cell apoptosis experiments.
# In the Western blot experiment, HPAF II cell suspensions were treated with each group of compounds, and cultured overnight in a 37 °C, 5% CO2 incubator, and the cell protein lysate was collected for Western blot (WB) detection.
# The specific compounds to be treated in the Western blot inhibitor group and activator group are as follows: Inhibitor group: 1% DMSO treatment group, 1 µM AST treatment group, 30 µM PD98059 treatment group, 1 mM Suramin treatment group, 1 µM AST + 30 µM PD98059 treatment group, and 1 µM AST + 1 mM Suramin treatment group; and Activator group: 1% DMSO treatment group, 0.5 µM AST treatment group, 25 nM TPA treatment group, and 0.5 µM AST + 25 nM TPA treatment group.
structure (smiles),measurement,setting,value
O=[N+]([O-])c1ccc(C(OP(=O)(N2CC2)N2CC2)C(F)(F)F)cc1Oc1ccc(-c2ccc(F)cc2)c(F)c1 (centres unmarked) [AST],p-NRF2 expression level,"p-ERK2 [1]; 1 µM AST + 3 µM AST-3021, 24h",remained basically unchanged
same,expression level of p-NRF2,p-ERK2 [1]; 1 µM AST for 2 hours and 8 hours,remained basically unchanged
same,expression level of p-NRF2 / phosphorylation level of ERK2,"p-ERK2 [1]; 1 µM AST for 24 hours, compared to DMSO control",increased significantly; also recorded: significantly increased
same,expression of p-NRF2,p-ERK2 [1]; 10 µM AST for 24 hours,increased significantly
same,expression level of p-NRF2,"p-ERK2 [1]; increasing AST concentration 0.5, 1, 10 µM, 24h",increased correspondingly
same,total ERK2 expression level,ERK2,not affected
same,p-ERK2 expression levels,p-ERK2 [2]; 0.5 µM AST + 25 nM TPA,significantly increased
same,p-ERK2 expression levels,"p-ERK2 [2]; 0.5 µM AST monotherapy, compared to DMSO control",increased
same,expression level of p-ERK2,p-ERK2 [2]; 1 µM AST + 30 µM PD98059,significantly reduced
same,expression level of p-ERK2,p-ERK2 [2]; 1 µM AST + 1 mM Suramin,slightly increased
same,expression level of p-ERK2,p-ERK2 [2]; 1 µM AST monotherapy,significantly increased
